Source: PMC8406801, “Naringenin Inhibits Platelet Activation and Arterial Thrombosis Through Inhibition of Phosphoinositide 3-Kinase and Cyclic Nucleotide Signaling” (Frontiers in Pharmacology, 2021)
Values joined by “and” are separate entries in the source; they are usually repeats but may differ in a detail not shown here. Equal values may be shown once.

Legend:
[1] = test system: Akt Thr308 phosphorylation; experiment: Immunoblotting of phospho-Akt (Thr308) in ADP-stimulated washed platelets; format: cell-based, rat; conditions: ADP 10 μmol/L, single replicates; for p-Akt Thr308 / t-Akt: raw data
Description: (§1) For in vitro platelet aggregation, aliquots of washed platelets were preincubated with vehicle or various concentrations of naringenin for 5 min and stimulated with ADP (10 μmol/L) under stirring at 37°C for 5 min. For ex vivo platelet aggregation, PRP was incubated at 37°C for 5 min and stimulated with ADP (5 μmol/L) under stirring at 37 °C. The platelet aggregation was terminated by adding ethylenediaminetetraacetic acid (EDTA; 10 mM). Total protein was prepared using RIPA lysis buffer and protein content was determined by bicinchoninic acid (BCA) protein assay kit. Equal amounts of platelet proteins (30 μg) were separated on 10% SDS polyacrylamide gel electrophoresis (SDS-PAGE) and then transferred to poly vinylidene difluoride (PVDF) membranes and subjected to western blot. Blots were blocked with TBS-Tween 20 containing 5% BSA and probed with primary antibodies diluted in blocking solution at 4°C overnight followed by incubation with the corresponding HRP secondary antibodies. The protein bands were visualized using enhanced chemiluminescence (ECL).
(§2) FIGURE 4 Naringenin inhibits PI3K-mediated signaling in ADP-induced platelets. Washed rat platelets were preincubated without or with naringenin at 37°C for 5 min, and then stimulated with ADP (10 μmol/L) under stirring for 5 min. Platelet proteins were then extracted and analyzed by immunoblotting using PI3Kp110β antibody (A) and phospho-specific antibodies such as Akt^Ser473 (B), Akt^Thr308 (C), ERK1/2^Thr202/Tyr204 (D) and GSK3β^Ser9 (E). Total level of GAPDH was measured on each sample as a loading control. The blots shown are representative of three separate experiments. The relative protein expression levels were quantified by ImageJ 1.47v software. The level of relative protein expression obtained with vehicle control (0 μM) was taken as 1. R represents the level of relative protein expression in resting platelets. Data are expressed as means ± SD (n = 3). *p < 0.05, **p < 0.01, ***p < 0.001 compared with the vehicle control group.

[2] = test system: P-selectin exposure on washed platelets; experiment: ADP-stimulated P-selectin exposure (flow cytometry); format: cell-based, rat; conditions: ADP 10 μM; for P-selectin exposure: mean ± SD, n = 3, 86.06 ± 9.05% without naringenin; for P-selectin (%): single replicates
Description: Flow cytometric assays were performed as described previously ([Wang et al., 2019]). ADP-stimulated P-selectin exposure and fibrinogen binding were determined in washed platelets. […] The platelets were immediately incubated with PE-labeled CD62P or FITC-labeled fibrinogen in the dark at room temperature for 15 min. The cells were finally fixed with 1% (v/v) paraformaldehyde prior to analysis using an Accuri C6 flow cytometer (BD Biosciences, United States).

[3] = test system: washed platelets on fibrinogen-coated coverslips; experiment: Platelet spreading on fibrinogen; format: cell-based, rat; conditions: for surface coverage, platelet spreading on fibrinogen: mean ± SD, n = 3, vehicle 30.37 ± 3.31%; for Area (%) of platelets spread on fibrinogen: single replicates
Description: Washed platelets were incubated with vehicle or various concentrations of naringenin at 37°C for 10 min in the presence of 2 mM CaCl2 and allowed to spread on fibrinogen-coated coverslips for 45 min at 37°C ([Liu et al., 2016]). After washed three times with phosphate-buffered saline (PBS), adherent platelets were fixed with 4% paraformaldehyde, permeabilized with 0.1% Triton X-100 and stained with TRITC-conjugated phalloidin (1 μg/ml) in the dark at room temperature for 60 min. Adherent platelets were observed under an inverted fluorescence microscope (Nikon TE-2000S) and processed using Image J software.

[4] = test system: GSK3β Ser9 phosphorylation; experiment: Immunoblotting of phospho-GSK3β (Ser9) in ADP-stimulated washed platelets; format: cell-based, rat; conditions: for p-GSK3β / t-GSK3β / p-GSK3β / t-GSK3β (Fold to ADP only): ADP 10 μmol/L, single replicates; for p-GSK3β / t-GSK3β: raw data
Description: as §1, §2

[5] = test system: PDE extracts prepared from rat PRP (cGMP hydrolysis); experiment: Phosphodiesterase activity in platelet extracts, hydrolysis of cGMP (HPLC); format: biochemical; conditions: vehicle = 100%, single replicates
Description: The effects of naringenin on PDE activity were determined using high-performance liquid chromatography (HPLC) ([Hu et al., 2011]). Briefly, PRP was pelleted by centrifugation for 10 min at 900 × g and homogenized in PBS containing 0.1% Triton X-100 using an ultrasonic homogenizer. After centrifugation at 12,000 × g for 20 min at 4°C, the supernatant was subjected to PDE activity assay.
DMSO vehicle or different concentrations naringenin were added to assay buffer (137 mM NaCl, 2.7 mM KCl, 8.8 mM Na2HPO4, 1.5 mM KH2PO4, 1 mM CaCl2, 1 mM MgCl2, pH 7,4) containing cAMP or cGMP. The reaction was initiated by adding 30 μL PDE extracts prepared from rat PRP as described above. Some extracts were boiled for 3 min to inactivate PDE before addition. After incubation for 30 min at […], the reaction was terminated by boiling the mixture for 3 min. Subsequently, the mixture was cooled on ice followed by centrifugation at 12,000 × g for 20 min at 4°C. The supernatant was subjected cAMP or cGMP assay using HPLC. PDE activity was expressed as percentages of the hydrolysis of cAMP or cGMP.

O=C1C[C@@H](c2ccc(O)cc2)Oc2cc(O)cc(O)c21 [Naringenin]
p-Akt Thr308 / t-Akt ([1]; 100 μM): 0.1089 and 0.0807 and 0.1359 | p-Akt Thr308 / t-Akt (Fold to ADP only) ([1]; 100 μM): 0.3238 Fold to ADP only and 0.2400 Fold to ADP only and 0.4039 Fold to ADP only | p-Akt Thr308 / t-Akt ([1]; 200 μM): 0.0912 and 0.0481 and 0.0944 | p-Akt Thr308 / t-Akt (Fold to ADP only) ([1]; 200 μM): 0.2711 Fold to ADP only and 0.1429 Fold to ADP only and 0.2806 Fold to ADP only | p-Akt Thr308 / t-Akt ([1]; 400 μM): 0.0712 and 0.0237 and 0.0830 | p-Akt Thr308 / t-Akt (Fold to ADP only) ([1]; 400 μM): 0.2116 Fold to ADP only and 0.0703 Fold to ADP only and 0.2468 Fold to ADP only | p-Akt Thr308 / t-Akt ([1]; 800 μM): 0.0216 and 0.0199 and 0.0438 | p-Akt Thr308 / t-Akt (Fold to ADP only) ([1]; 800 μM): 0.0641 Fold to ADP only and 0.0591 Fold to ADP only and 0.1303 Fold to ADP only | P-selectin exposure ([2]; 200 μM): 58.33 ± 7.86% | P-selectin (%) ([2]; 200 μM): 50.70% and 58.70% and 65.60% | P-selectin exposure ([2]; 400 μM): 35.12 ± 11.91% | P-selectin (%) ([2]; 400 μM): 22.54% and 46.23% and 36.58% | P-selectin exposure ([2]; 800 μM): 31.56 ± 7.26% | P-selectin (%) ([2]; 800 μM): 24.10% and 32.22% and 38.35% | surface coverage, platelet spreading on fibrinogen ([3]; 100 μM): 20.96 ± 5.08% | Area (%) of platelets spread on fibrinogen ([3]; 100 μM): 25.76% and 15.64% and 21.47% | surface coverage, platelet spreading on fibrinogen ([3]; 200 μM): 15.29 ± 1.87% | Area (%) of platelets spread on fibrinogen ([3]; 200 μM): 16.88% and 15.75% and 13.23% | surface coverage, platelet spreading on fibrinogen ([3]; 400 μM): 10.56 ± 0.79% | Area (%) of platelets spread on fibrinogen ([3]; 400 μM): 9.69% and 11.23% and 10.75% | surface coverage, platelet spreading on fibrinogen ([3]; 800 μM): 6.98 ± 2.74% | Area (%) of platelets spread on fibrinogen ([3]; 800 μM): 4.62% and 6.33% and 9.98% | p-GSK3β / t-GSK3β ([4]; 100 μM): 0.3609 and 0.3982 and 0.3384 | p-GSK3β / t-GSK3β (Fold to ADP only) ([4]; 100 μM): 0.5893 Fold to ADP only and 0.6502 Fold to ADP only and 0.5525 Fold to ADP only | p-GSK3β / t-GSK3β ([4]; 200 μM): 0.4301 and 0.3431 and 0.4790 | p-GSK3β / t-GSK3β (Fold to ADP only) ([4]; 200 μM): 0.7022 Fold to ADP only and 0.5603 Fold to ADP only and 0.7821 Fold to ADP only | p-GSK3β / t-GSK3β ([4]; 400 μM): 0.3379 and 0.5076 and 0.5137 | p-GSK3β / t-GSK3β (Fold to ADP only) ([4]; 400 μM): 0.5517 Fold to ADP only and 0.8288 Fold to ADP only and 0.8388 Fold to ADP only | p-GSK3β / t-GSK3β ([4]; 800 μM): 0.4062 and 0.4495 and 0.5157 | p-GSK3β / t-GSK3β (Fold to ADP only) ([4]; 800 μM): 0.6632 Fold to ADP only and 0.7339 Fold to ADP only and 0.8420 Fold to ADP only | influence on GSK3β phosphorylation ([4]; ADP-induced platelets): no influence | PDE activity (%) ([5]; 100 μM): 55.89% and 98.26% and 70.79% | PDE activity (%) ([5]; 200 μM): 55.23% and 54.30% and 66.68% | PDE activity (%) ([5]; 400 μM): 64.97% and 53.69% and 55.23% | PDE activity (%) ([5]; 800 μM): 56.89% and 50.38% and 49.55%
